Measurements reported in the NIST ThermoML archive (doi:10.1021/je300083m).
Numbers after ± are expanded uncertainties.

Experiment: mn = molality of the nth substance listed, in mol/kg
Details: 101 kPa, Liquid, m1 = 0.512

SMILES: O=[N+]([O-])[O-].[K+] [potassium nitrate] + O
- mass density (298.15 K): 1027.98 ± 0.22 kg/m3
- mass density (303.15 K): 1026.22 ± 0.22 kg/m3
- mass density (308.15 K): 1024.1 ± 0.21 kg/m3
- mass density (313.15 K): 1022.05 ± 0.21 kg/m3
- mass density (318.15 K): 1020.2 ± 0.21 kg/m3
- mass density (323.15 K): 1018.2 ± 0.2 kg/m3

SMILES: O=S(=O)([O-])[O-].[K+].[K+] [potassium sulfate] + O
- mass density (298.15 K): 1063.81 ± 0.3 kg/m3
- mass density (303.15 K): 1062.02 ± 0.29 kg/m3
- mass density (308.15 K): 1060.06 ± 0.29 kg/m3
- mass density (313.15 K): 1057.74 ± 0.29 kg/m3
- mass density (318.15 K): 1055.14 ± 0.28 kg/m3
- mass density (323.15 K): 1052.95 ± 0.28 kg/m3
